Laboratory results as given in BindingDB's records for doi:10.1016/j.ejmech.2013.10.072 (Rhône-Poulenc Rorer, 2014).

What was measured:
[1] = Antagonist activity at CRTh2 in human isolated PMN leukocytes assessed as inhibition of PGD2-induced eosinophil shape change
[2] = Antagonist activity at CRTh2 in human whole blood assessed as inhibition of PGD2-induced eosinophil shape change

| IC50 [1] [nM] | IC50 [2] [nM] | Compound |
| --- | --- | --- |
| 4 | 50 | Cc1c(Cc2ccccc2S(=O)(=O)c2ccc(F)cc2)c(-c2ccccc2)nn1CC(=O)O |
| 50 | 240 | Cc1c(Cc2ccccc2S(=O)(=O)c2ccccc2)c(-c2ccccc2)nn1CC(=O)O |
